# Source: the supplement of paper PMC10307832
# Tests used:
# Test in all cases: relative viability (nuclei count vs DMSO), 5 days (fraction); higher = more cells survive
# [1] = compound: Cn1cc(-c2cnn3c(N)c(Br)c([C@@H]4CCCNC4)nc23)cn1 + O=C(CCCCCCC(=O)Nc1ccccc1)NO [Vorinostat] (partner 1 µM)
# How it was run: (§1)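 Lung cancer cell lines, seeded in 1536-well plates, were treated the following day by pin tool with a single drug or with five library-drug doses (not always all listed) in √10 steps on top of a fixed anchor-drug dose. Cells were fixed and nuclei stained in one step after 5 days, and nuclei were counted. Relative viability is the nuclei count for treated wells divided by that for vehicle wells, reported as medians of duplicate plates.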
# [2] = compound: Cn1cc(-c2cnn3c(N)c(Br)c([C@@H]4CCCNC4)nc23)cn1 + Cc1nc(Nc2ncc(C(=O)Nc3c(C)cccc3Cl)s2)cc(N2CCN(CCO)CC2)n1 [Dasatinib] (partner 0.075 µM)
# How it was run: as §1
# [3] = compound: Cn1cc(-c2cnn3c(N)c(Br)c([C@@H]4CCCNC4)nc23)cn1 + CS(=O)(=O)N1CCN(Cc2cc3nc(-c4cccc5[nH]ncc45)nc(N4CCOCC4)c3s2)CC1 [Pictilisib] (partner 1 µM)
# How it was run: as §1
# [4] = compound: Cn1cc(-c2cnn3c(N)c(Br)c([C@@H]4CCCNC4)nc23)cn1 + C[C@@H](Oc1cc(-c2cnn(C3CCNCC3)c2)cnc1N)c1c(Cl)ccc(F)c1Cl [Crizotinib] (partner 1 µM)
# How it was run: as §1
Cell Line,relative viability ([1]; first compound 0.05 µM),relative viability ([1]; first compound 0.1581 µM),relative viability ([1]; first compound 0.5 µM),relative viability ([1]; first compound 1.581 µM),relative viability ([1]; first compound 5 µM),relative viability ([2]; first compound 0.05 µM),relative viability ([2]; first compound 0.1581 µM),relative viability ([2]; first compound 0.5 µM),relative viability ([2]; first compound 1.581 µM),relative viability ([2]; first compound 5 µM),relative viability ([3]; first compound 0.05 µM),relative viability ([3]; first compound 0.1581 µM),relative viability ([3]; first compound 0.5 µM),relative viability ([3]; first compound 1.581 µM),relative viability ([3]; first compound 5 µM),relative viability ([4]; first compound 0.05 µM),relative viability ([4]; first compound 0.1581 µM),relative viability ([4]; first compound 0.5 µM),relative viability ([4]; first compound 1.581 µM),relative viability ([4]; first compound 5 µM)
NCI-H1666,1.16,1.03,0.886,0.906,0.844,0.818,0.734,0.642,0.756,0.785,0.657,0.429,0.338,0.464,0.413,1.03,0.906,1.02,1,0.869
NCI-H1734,0.788,0.75,0.653,0.586,0.348,0.469,0.506,0.435,0.345,0.338,0.506,0.46,0.475,0.382,0.358,0.682,0.804,0.633,0.661,0.393
NCI-H1755,0.869,0.828,0.653,0.642,0.503,0.4,0.42,0.42,0.407,0.253,0.472,0.411,0.452,0.292,0.334,0.988,1.03,0.932,0.845,0.602
NCI-H1915,0.511,0.535,0.666,0.574,0.432,0.307,0.351,0.355,0.347,0.283,0.933,0.942,0.948,0.896,0.9,0.674,0.871,0.906,0.697,0.905
NCI-H1944,0.566,0.575,0.463,0.452,0.219,0.23,0.206,0.197,0.192,0.179,0.341,0.358,0.346,0.32,0.302,0.951,1.21,1.09,0.931,0.717
NCI-H1975,0.793,0.715,0.686,0.547,0.548,0.393,0.355,0.409,0.331,0.346,0.308,0.264,0.308,0.222,0.248,1.01,1.05,0.781,0.764,0.714
NCI-H1993,0.803,0.873,0.921,0.713,0.636,0.619,0.601,0.545,0.549,0.507,0.816,0.789,,0.819,0.686,0.76,0.878,,0.933,0.702
NCI-H2009,0.82,0.806,0.722,0.818,0.528,0.3,0.291,0.257,0.219,0.216,0.712,0.873,0.714,0.517,0.552,1.05,1.03,1.08,0.881,0.678
NCI-H2023,0.65,0.349,0.428,0.177,0.097,0.616,0.513,0.427,0.225,0.156,0.268,0.226,0.194,0.143,0.11,0.702,0.428,0.436,0.272,0.172
NCI-H2085,0.801,0.761,0.843,0.725,0.61,0.239,0.235,0.229,0.24,0.203,0.508,0.441,0.57,0.403,0.469,0.846,1.01,0.733,0.794,0.646
NCI-H2087,0.865,0.891,0.341,0.424,0.653,0.856,0.936,1.09,0.835,0.809,0.821,1,0.95,0.852,0.803,1.01,1.27,0.939,0.983,0.954
NCI-H2126,0.694,0.788,0.762,0.683,0.68,0.581,0.58,0.568,0.506,0.488,0.462,0.519,0.512,0.52,0.524,1.1,1.09,1.07,0.932,1.03
NCI-H2170,0.826,0.882,0.659,0.796,0.989,0.713,0.541,0.524,0.551,0.446,0.281,0.299,0.262,0.274,0.295,1.19,1.21,1.19,1.16,1.12
NCI-H2228,0.636,0.592,0.507,0.345,0.155,0.572,0.66,0.459,0.294,0.241,0.258,0.286,0.297,0.355,0.351,0.502,0.491,0.404,0.419,0.277
NCI-H2347,0.525,0.585,0.511,0.482,0.4,0.319,0.255,0.285,0.324,0.209,0.77,0.63,0.759,0.264,0.57,0.63,0.588,0.788,0.668,0.637
NCI-H2405,0.962,1.01,0.951,0.847,0.668,0.21,0.458,0.205,0.201,0.203,0.466,0.37,0.396,0.327,0.314,0.884,0.849,0.794,0.765,0.611
